The text below walks through data of patent US20220105188A1, “TARGET PROTEIN EED DEGRADATION-INDUCING DEGRADUCER, PREPARATION METHOD THEREOF, AND PHARMACEUTICAL COMPOSITION FOR PREVENTING OR TREATING DISEASES RELATED TO EED, EZH2, OR PRC2, COMPRISING SAME AS ACTIVE INGREDIENT” (KOREA RESEARCH INSTITUTE OF CHEMICAL TECHNOLOGY, priority 2019, published 2022).

This experiment concerns the target T1, EED (Homo sapiens, UniProt O75530).
T1 construct: 2×10^5 Hela cells were injected into a 12-well plate; endogenous in cells; host or cells: HeLa
Put plainly: EED Proteolytic Activity Evaluation 2 (western blot, Hela cells). The format is cell-based. The note with it: 1 nM, 10 nM, 100 nM and 1000 nM, 20 hours of treatment. Here is the method: [Experiment 2] EED Proteolytic Activity Evaluation 2
In order to evaluate the EED proteolytic activity of the compound according to the present invention, an experiment was conducted as follows.
Specifically, 2×10^5 Hela cells were injected into a 12-well plate, and after 8 hours of stabilization, each well was treated with the example compounds to have final concentrations of 1 nM, 10 nM, 100 nM, and 1000 nM. One well was treated with the volume of DMSO contained in the sample corresponding to the highest concentration in the experimental group. After 20 hours of treatment, the cells were collected and lysed using 80 μl of SDS Lysis buffer (50 mM Tris pH8.0, 1% SDS, 1 mM EDTA, 0.5 mM PMSF, and protease inhibitor cocktail) and then sonication (30 sec on/59 sec off), 5 cycles) to prepare a cell lysate, followed by protein quantification through BCA, followed by Western blot, and the results are shown in Table 3. (Maximum EED degradation rate: A: >50%, B: 25-50%, C: <25%)

T1 sequence (O75530 whole entry): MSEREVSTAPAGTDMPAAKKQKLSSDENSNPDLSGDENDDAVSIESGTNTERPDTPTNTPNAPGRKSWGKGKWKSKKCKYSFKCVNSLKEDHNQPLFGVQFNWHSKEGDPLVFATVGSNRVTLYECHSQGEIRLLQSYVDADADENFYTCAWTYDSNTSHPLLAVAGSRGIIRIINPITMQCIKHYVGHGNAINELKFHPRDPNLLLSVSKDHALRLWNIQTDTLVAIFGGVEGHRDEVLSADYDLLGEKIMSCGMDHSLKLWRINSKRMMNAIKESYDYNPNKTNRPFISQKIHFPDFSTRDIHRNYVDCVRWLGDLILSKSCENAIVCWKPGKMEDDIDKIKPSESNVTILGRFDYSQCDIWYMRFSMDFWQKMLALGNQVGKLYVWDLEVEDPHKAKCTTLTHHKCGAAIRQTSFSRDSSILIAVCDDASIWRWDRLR

For `Cc1cccc(F)c1CN1C[C@H](c2ccc(N3CCN(C(=O)CCCNc4cccc5c4C(=O)N(C4CCC(=O)NC4=O)C5=O)CC3)cc2)[C@@H](N(C)C)C1` (stereo partly drawn) [Example 123, 4-((4-(4-(4-((3S,4R)-4-(dimethylamino)-1-(2-fluoro-6-methylbenzyl)pyrrolidin-3-yl)phenyl)piperazin-1-yl)-4-oxobutyl)amino)-2-(2,6-dioxopiperidin-3-yl)isoindolin-1,3-dione], the “EED degradation rate (Maximum EED degradation rate)” value (“EED degradation rate” below) is recorded as “B (B: 25-50%)”.

Turning to `Cc1cccc(F)c1CN1C[C@H](c2ccc(N3CCN(C(=O)CC4CCN(C(=O)COc5cccc6c5C(=O)N(C5CCC(=O)NC5=O)C6=O)CC4)CC3)cc2)[C@@H](N(C)C)C1` (stereo partly drawn) [Example 143, 4-(2-(4-(2-(4-(4-((3S,4R)-4-(dimethylamino)-1-(2-fluoro-6-methylbenzyl)pyrrolidin-3-yl)phenyl)piperazin-1-yl)-2-oxoethyl)piperidin-1-yl)-2-oxoethoxy)-2-(2,6-dioxopiperidin-3-yl)isoindolin-1,3-dione], the “EED degradation rate” value is given as “A (A: >50%)”.

As for `Cc1cccc(F)c1CN1C[C@H](c2ccc(N3CCN(C(=O)CCCCCCCNc4cccc5c4C(=O)N(C4CCC(=O)NC4=O)C5=O)CC3)cc2)[C@@H](N(C)C)C1` (stereo partly drawn) [Example 125, 4-((8-(4-(4-((3S,4R)-4-(dimethylamino)-1-(2-fluoro-6-methylbenzyl)pyrrolidin-3-yl)phenyl)piperazin-1-yl)-8-oxooctyl)amino)-2-(2,6-dioxopiperidin-3-yl)isoindolin-1,3-dione], the “EED degradation rate” value is on record as “A (A: >50%)”.

Take `Cc1cccc(F)c1CN1C[C@H](c2ccc(N3CCN(CCC4CCN(C(=O)CNc5ccc6c(c5)C(=O)N(C5CCC(=O)NC5=O)C6=O)CC4)CC3)cc2)[C@@H](N(C)C)C1` (stereo partly drawn) [Example 136, 5-((2-(4-(2-(4-(4-((3S,4R)-4-(dimethylamino)-1-(2-fluoro-6-methylbenzyl)pyrrolidin-3-yl)phenyl)piperazin-1-yl)ethyl)piperidin-1-yl)-2-oxoethyl)amino)-2-(2,6-dioxopiperidin-3-yl)isoindolin-1,3-dione]: the “EED degradation rate” value is reported as “A (A: >50%)”.

For the molecule `Cc1cccc(F)c1CN1C[C@H](c2ccc(N3CCN(C(=O)CC4CCN(C(=O)COc5ccc6c(c5)C(=O)N(C5CCC(=O)NC5=O)C6=O)CC4)CC3)cc2)[C@@H](N(C)C)C1` (stereo partly drawn) [Example 145, 5-(2-(4-(2-(4-(4-((3S,4R)-4-(dimethylamino)-1-(2-fluoro-6-methylbenzyl)pyrrolidin-3-yl)phenyl)piperazin-1-yl)-2-oxoethyl)piperidin-1-yl)-2-oxoethoxy)-2-(2,6-dioxopiperidin-3-yl)isoindolin-1,3-dione], the “EED degradation rate” value was “B (B: 25-50%)”.

As for `Cc1cccc(F)c1CN1C[C@H](c2ccc(N3CCN(C(=O)CCC4CCN(C(=O)COc5ccc6c(c5)C(=O)N(C5CCC(=O)NC5=O)C6=O)CC4)CC3)cc2)[C@@H](N(C)C)C1` (stereo partly drawn) [Example 147, 5-(2-(4-(3-(4-(4-((3S,4R)-4-(dimethylamino)-1-(2-fluoro-6-methylbenzyl)pyrrolidin-3-yl)phenyl)piperazin-1-yl)-3-oxopropyl)piperidin-1-yl)-2-oxoethoxy)-2-(2,6-dioxopiperidin-3-yl)isoindolin-1,3-dione], the “EED degradation rate” value is “B (B: 25-50%)”.

For the molecule `Cc1cccc(F)c1CN1C[C@H](c2ccc(N3CCN(CCC4CCN(c5cccc6c5C(=O)N(C5CCC(=O)NC5=O)C6=O)CC4)CC3)cc2)[C@@H](N(C)C)C1` (stereo partly drawn) [Example 153, 4-(4-(2-(4-(4-((3S,4R)-4-(dimethylamino)-1-(2-fluoro-6-methylbenzyl)pyrrolidin-3-yl)phenyl)piperazin-1-yl)ethyl)piperidin-1-yl)-2-(2,6-dioxopiperidin-3-yl)isoindolin-1,3-dione], the “EED degradation rate” value was “A (A: >50%)”.

With `Cc1cccc(F)c1CN1C[C@H](c2ccc(N3CCN(C(=O)COCCOCCNC(=O)CNc4ccc5c(c4)C(=O)N(C4CCC(=O)NC4=O)C5=O)CC3)cc2)[C@@H](N(C)C)C1` (stereo partly drawn) [Example 121, N-(2-(2-(2-(4-(4-((3S,4R)-4-(dimethylamino)-1-(2-fluoro-6-methylbenzyl)pyrrolidin-3-yl)phenyl)piperazin-1-yl)-2-oxoethoxy)ethoxy)ethyl)-2-((2-(2,6-dioxopiperidin-3-yl)-1,3-dioxoisoindolin-5-yl)amino)acetamide], the “EED degradation rate” value is on record as “A (A: >50%)”.

As to `Cc1cccc(F)c1CN1C[C@H](c2ccc(N3CCN(C(=O)CCC4CCN(C(=O)COc5cccc6c5C(=O)N(C5CCC(=O)NC5=O)C6=O)CC4)CC3)cc2)[C@@H](N(C)C)C1` (stereo partly drawn) [Example 148, 4-(2-(4-(3-(4-(4-((3S,4R)-4-(dimethylamino)-1-(2-fluoro-6-methylbenzyl)pyrrolidin-3-yl)phenyl)piperazin-1-yl)-3-oxopropyl)piperidin-1-yl)-2-oxoethoxy)-2-(2,6-dioxopiperidin-3-yl)isoindolin-1,3-dione], the “EED degradation rate” value is given as “A (A: >50%)”.

For `Cc1cccc(F)c1CN1C[C@H](c2ccc(N3CCN(CC4CCN(c5cccc6c5C(=O)N(C5CCC(=O)NC5=O)C6=O)CC4)CC3)cc2)[C@@H](N(C)C)C1` (stereo partly drawn) [Example 139, 4-(4-((4-(4-((3S,4R)-4-(dimethylamino)-1-(2-fluoro-6-methylbenzyl)pyrrolidin-3-yl)phenyl)piperazin-1-yl)methyl)piperidin-1-yl)-2-(2,6-dioxopiperidin-3-yl)isoindolin-1,3-dione], the “EED degradation rate” value was “C (C: <25%)”.

With `Cc1cccc(F)c1CN1C[C@H](c2ccc(N3CCN(CCC4CCN(C(=O)COc5cccc6c5C(=O)N(C5CCC(=O)NC5=O)C6=O)CC4)CC3)cc2)[C@@H](N(C)C)C1` (stereo partly drawn) [Example 151, 4-(2-(4-(2-(4-(4-((3S,4R)-4-(dimethylamino)-1-(2-fluoro-6-methylbenzyl)pyrrolidin-3-yl)phenyl)piperazin-1-yl)ethyl)piperidin-1-yl)-2-oxoethoxy)-2-(2,6-dioxopiperidin-3-yl)isoindolin-1,3-dione], the “EED degradation rate” value is reported as “A (A: >50%)”.

With `Cc1cccc(F)c1CN1C[C@H](c2ccc(N3CCN(CCC4CCN(C(=O)CNc5cccc6c5C(=O)N(C5CCC(=O)NC5=O)C6=O)CC4)CC3)cc2)[C@@H](N(C)C)C1` (stereo partly drawn) [Example 152, 4-((2-(4-(2-(4-(4-((3S,4R)-4-(dimethylamino)-1-(2-fluoro-6-methylbenzyl)pyrrolidin-3-yl)phenyl)piperazin-1-yl)ethyl)piperidin-1-yl)-2-oxoethyl)amino)-2-(2,6-dioxopiperidin-3-yl)isoindolin-1,3-dione], the “EED degradation rate” value is recorded as “A (A: >50%)”.

Consider `Cc1cccc(F)c1CN1C[C@H](c2ccc(N3CCN(CC4CCN(c5ccc6c(c5)C(=O)N(C5CCC(=O)NC5=O)C6=O)CC4)CC3)cc2)[C@@H](N(C)C)C1` (stereo partly drawn) [Example 131, 5-(4-((4-(4-((3S,4R)-4-(dimethylamino)-1-(2-fluoro-6-methylbenzyl)pyrrolidin-3-yl)phenyl)piperazin-1-yl)methyl)piperidin-1-yl)-2-(2,6-dioxopiperidin-3-yl)isoindolin-1,3-dione], for which the “EED degradation rate” value is listed as “A (A: >50%)”.

In the case of `Cc1cccc(F)c1CN1C[C@H](c2ccc(N3CCN(C(=O)COCCOCCOCCNC(=O)CNc4ccc5c(c4)C(=O)N(C4CCC(=O)NC4=O)C5=O)CC3)cc2)[C@@H](N(C)C)C1` (stereo partly drawn) [Example 122, N-(2-(2-(2-(2-(4-(4-((3S,4R)-4-(dimethylamino)-1-(2-fluoro-6-methylbenzyl)pyrrolidin-3-yl)phenyl)piperazin-1-yl)-2-oxoethoxy)ethoxy)ethoxy)ethyl)-2-((2-(2,6-dioxopiperidin-3-yl)-1,3-dioxoisoindolin-5-yl)amino)acetamide], the “EED degradation rate” value is “A (A: >50%)”.

As to `O=C1CCC(n2nnc3ccc(NCC(=O)N4CCC(CN5CCC(n6cc(-c7cnc(NCc8ccco8)n8cnnc78)cn6)CC5)CC4)cc3c2=O)C(=O)N1` (stereo not shown) [Example 128, 3-(6-((2-(4-((4-(4-(5-((furan-2-ylmethyl)amino)-[1,2,4]triazolo[4,3-c]pyrimidin-8-yl)-1H-pyrazol-1-yl)piperidin-1-yl)methyl)piperidin-1-yl)-2-oxoethyl)amino)-4-oxobenzo[d][1,2,3]triazin-3 (4H)-yl)piperidin-2,6-dione], the “EED degradation rate” value is reported as “C (C: <25%)”.

Take `Cc1cccc(F)c1CN1C[C@H](c2ccc(N3CCN(C(=O)CC4CCN(c5ccc6c(c5)C(=O)N(C5CCC(=O)NC5=O)C6=O)CC4)CC3)cc2)[C@@H](N(C)C)C1` (stereo partly drawn) [Example 132, 5-(4-(2-(4-(4-((3S,4R)-4-(dimethylamino)-1-(2-fluoro-6-methylbenzyl)pyrrolidin-3-yl)phenyl)piperazin-1-yl)-2-oxoethyl)piperidin-1-yl)-2-(2,6-dioxopiperidin-3-yl)isoindolin-1,3-dione]: the “EED degradation rate” value is listed as “A (A: >50%)”.
